Measured values reported in publication PMC8752738, “A propolis-derived small molecule ameliorates metabolic syndrome in obese mice by targeting the CREB/CRTC2 transcriptional complex” (Nature Communications, 2022).
Several values for one entry are separate records, joined by “and”; a condition that tells them apart may be missing. Identical values can stand only once.

Assay: Metabolic chamber assay
Assay type: in vivo, mouse
Parameters: AUC of RER / AUC of RER, group mean: unit not given beside the values
Conditions: for RER of DIO: DIO ip APC, single animals
Experimental: Metabolic parameters of mice were determined using Columbus Instruments Comprehensive Lab Animal Monitoring System (CLAMS). The area unit under the curve (AUC) of respiratory exchange ratio (RER) and ambulatory activity (X-TOT) were calculated using Graphpad prism 8.0.

CC(C)=CCc1cc(C=CC(=O)O)cc(CC=C(C)C)c1O [APC, 3,5-diprenyl-4-hydroxycinnamic acid]
RER of DIO (interval 44, hour 16.1): 0.887 and 0.859 and 0.818 and 0.83 | RER of DIO (interval 45, hour 16.5): 0.883 and 0.858 and 0.81 and 0.824 | RER of DIO (interval 46, hour 16.9): 0.827 and 0.816 and 0.835 and 0.797 | RER of DIO (interval 47, hour 17.2): 0.845 and 0.787 and 0.84 and 0.811 | RER of DIO (interval 48, hour 17.6): 0.803 and 0.8 and 0.812 and 0.779 | RER of DIO (interval 49, hour 18.0): 0.826 and 0.77 and 0.786 and 0.808 | RER of DIO (interval 50, hour 18.3): 0.8 and 0.765 and 0.776 and 0.827 | RER of DIO (interval 51, hour 18.7): 0.816 and 0.804 and 0.782 and 0.849 | RER of DIO (interval 52, hour 19.1): 0.748 and 0.846 and 0.834 and 0.782 | RER of DIO (interval 53, hour 19.4): 0.829 and 0.795 and 0.809 and 0.784 | RER of DIO (interval 54, hour 19.8): 0.795 and 0.796 and 0.8 and 0.821 | RER of DIO (interval 55, hour 20.2): 0.793 and 0.823 and 0.818 and 0.827 | RER of DIO (interval 56, hour 20.5): 0.819 and 0.827 and 0.837 and 0.791 | RER of DIO (interval 57, hour 20.9): 0.849 and 0.806 and 0.795 and 0.788 | RER of DIO (interval 58, hour 21.3): 0.795 and 0.771 and 0.783 and 0.79 | RER of DIO (interval 59, hour 21.6): 0.833 and 0.785 and 0.748 and 0.783 | RER of DIO (interval 60, hour 22.0): 0.787 and 0.839 and 0.786 and 0.789 | RER of DIO (interval 61, hour 22.4): 0.78 and 0.845 and 0.792 and 0.77 | RER of DIO (interval 62, hour 22.7): 0.799 and 0.852 and 0.77 and 0.81 | RER of DIO (interval 63, hour 23.1): 0.815 and 0.784 and 0.793 and 0.796 | RER of DIO (interval 64, hour 23.5): 0.868 and 0.804 and 0.79 and 0.793 | RER of DIO (interval 65, hour 23.8): 0.88 and 0.841 and 0.837 and 0.825 | RER of DIO (interval 66, hour 24.2): 0.846 and 0.879 and 0.838 and 0.813 | RER of DIO (interval 67, hour 24.6): 0.838 and 0.875 and 0.807 and 0.8 | RER of DIO (interval 68, hour 24.9): 0.86 and 0.913 and 0.847 and 0.857 | RER of DIO (interval 69, hour 25.3): 0.873 and 0.865 and 0.838 and 0.896 | RER of DIO (interval 70, hour 25.7): 0.843 and 0.89 and 0.8 and 0.847 | AUC of RER (WT mice, individual mice): 64.64 and 64.37 and 63.27 and 66.85 | Twenty-four hours respiratory exchange ratio (RER) (WT mice, individual mice, reading 6): 0.933 and 0.928 and 0.895 and 0.97 | Twenty-four hours respiratory exchange ratio (RER) (WT mice, individual mice, reading 7): 0.939 and 0.96 and 0.973 and 0.974 | Twenty-four hours respiratory exchange ratio (RER) (WT mice, individual mice, reading 8): 0.918 and 0.961 and 0.922 and 0.982 | Twenty-four hours respiratory exchange ratio (RER) (WT mice, individual mice, reading 9): 0.913 and 0.964 and 0.926 and 0.986 | Twenty-four hours respiratory exchange ratio (RER) (WT mice, individual mice, reading 10): 0.969 and 0.971 and 0.952 and 0.978 | Twenty-four hours respiratory exchange ratio (RER) (WT mice, individual mice, reading 11): 0.955 and 0.975 (2×) and 0.936 | Twenty-four hours respiratory exchange ratio (RER) (WT mice, individual mice, reading 12): 0.989 and 0.966 and 0.963 and 1.016 | Twenty-four hours respiratory exchange ratio (RER) (WT mice, individual mice, reading 13): 0.967 and 0.988 and 0.98 and 0.99 | Twenty-four hours respiratory exchange ratio (RER) (WT mice, individual mice, reading 14): 0.975 and 0.999 and 0.954 and 1.005 | Twenty-four hours respiratory exchange ratio (RER) (WT mice, individual mice, reading 15): 0.988 and 0.994 and 0.959 and 0.969 | Twenty-four hours respiratory exchange ratio (RER) (WT mice, individual mice, reading 16): 1.003 and 0.991 and 0.965 and 0.97 | Twenty-four hours respiratory exchange ratio (RER) (WT mice, individual mice, reading 17): 1.006 and 0.99 and 0.951 and 0.989 | Twenty-four hours respiratory exchange ratio (RER) (WT mice, individual mice, reading 18): 0.963 and 0.961 and 0.974 and 1.025 | Twenty-four hours respiratory exchange ratio (RER) (WT mice, individual mice, reading 19): 0.958 and 0.976 and 0.946 and 1.032 | Twenty-four hours respiratory exchange ratio (RER) (WT mice, individual mice, reading 20): 0.939 and 0.961 and 1.004 and 1.024 | Twenty-four hours respiratory exchange ratio (RER) (WT mice, individual mice, reading 21): 0.991 and 1.018 and 0.961 and 0.993 | Twenty-four hours respiratory exchange ratio (RER) (WT mice, individual mice, reading 22): 0.946 and 0.962 and 0.958 and 0.989 | Twenty-four hours respiratory exchange ratio (RER) (WT mice, individual mice, reading 23): 0.971 and 1.012 and 0.999 and 0.985 | Twenty-four hours respiratory exchange ratio (RER) (WT mice, individual mice, reading 24): 1.006 and 0.997 and 0.993 and 1.002 | Twenty-four hours respiratory exchange ratio (RER) (WT mice, individual mice, reading 25): 0.971 and 0.965 and 0.961 and 0.984 | Twenty-four hours respiratory exchange ratio (RER) (WT mice, individual mice, reading 26): 0.941 and 0.984 and 1.005 and 0.996 | Twenty-four hours respiratory exchange ratio (RER) (WT mice, individual mice, reading 27): 0.981 and 0.968 and 0.989 and 0.998 | Twenty-four hours respiratory exchange ratio (RER) (WT mice, individual mice, reading 28): 0.956 and 0.954 and 0.968 and 0.984 | Twenty-four hours respiratory exchange ratio (RER) (WT mice, individual mice, reading 29): 0.975 and 0.977 and 0.994 and 1.026 | Twenty-four hours respiratory exchange ratio (RER) (WT mice, individual mice, reading 30): 0.994 and 0.963 and 1.014 and 1.033 | AUC of RER, group mean (WT mice, n=4): 64.78 | respiratory exchange ratio (RER) and energy expenditure (db/db mice): significantly elevated
